Entries after “also recorded” stand apart in the source; their conditions may differ.
Key:
[1] = system: uPA; test: Western blot of bleo-treated Beas2B cells: uPA; type: cell-based, human; conditions: 40 μg/ml bleo, 28 h
Protocol: (§1) FIG. 4 depicts a set of Western blots showing the show the effect of bleo on uPA, uPAR, PAI-1 and p53 expression in LEC in vitro.
(§2) Beas2B cells were treated for 28 h with PBS or 40 μg/ml of bleo in the presence or absence of uPA or its ATF (20 nM), anti-β1-integrin monoclonal antibody (B1), (which activates β1-integrin by clustering), mouse IgG (mIgG), uPA+B1, uPA+mIgG, PP-1 (10 nM), or scrambled control peptide CP-1 (10 nM) at 37° C. In the case of uPA and PAI-1, the full length uPA was substituted with ATF, because uPA-mediated autoinduction or induction of PAI-1 occurs via the interaction of the ATF with uPAR (3-4). […] The membrane proteins were subjected to Western blotting using anti-uPAR antibody.

[2] = system: p53; test: Western blot of bleo-treated Beas2B cells: p53; type: cell-based, human; conditions: 40 μg/ml bleo, 28 h
Protocol: as §1, §2

[3] = system: PAI-1; test: Western blot of bleo-treated Beas2B cells: PAI-1; type: cell-based, human; conditions: 40 μg/ml bleo, 28 h
Protocol: as §1, §2

[4] = system: uPAR; test: Western blot of bleo-treated Beas2B cells: uPAR; type: cell-based, human; conditions: 40 μg/ml bleo, 28 h
Protocol: as §1, §2

[5] = system: bleo-induced DNA fragmentation; test: DNA fragmentation of genomic DNA from mouse lung extracts; type: in vivo; conditions: i.p. 0.1 ml osmotic minipump, 10 mM peptide, one day after intranasal bleo; lungs after 16 days
Protocol: Alternatively, PP-1 or CP-1 were administered in a continuous manner by i.p. implantation of an 0.1 ml osmotic minipump filled with PP-1 or CP-1 (10 mM or 2.92 mg/100 μl) one day after intranasal instillation of bleo. Lungs were harvested after 16 days. Total dose administered over that period was about 147 mg/kg. The apoptotic scores were calculated by counting the number of apoptotic cells in each field. Genomic DNA was isolated from saline, bleo, Bleo+PP-1 or Bleo+CP-1 mouse lung extracts, and subjected to DNA fragmentation.

[6] = system: Beas2B cells; test: Bleo-induced apoptosis of Beas2B cells, flow cytometry (anti-Annexin-V antibody and propidium iodide); type: cell-based, human; conditions: 28 h, 40 μg/ml bleo, uPA 20 nM, anti-β1-integrin antibody 1 μg/ml, PP-1 10 nM
Protocol: FIG. 6 is a graph showing apoptosis (% apoptotic cells) after treatment of cells with a β1-integrin activator (anti-β1-integrin antibody), uPA, a combination of the antibody and uPA, or PP-1, along with appropriate controls. Beas2B cells were treated for 28 h with PBS or 40 μg/ml of Bleo in the presence or absence of uPA (20 nM) or PBS as control, with anti-β1-integrin antibody (1 μg/ml, B1), or mouse IgG (mIgG) as control, a combination of the antibody (or control antibody with uPA, and with PP-1 peptide (10 nM) or the CP-1 control peptide (10 nM) as described above at 37° C. Cells were harvested after trypsinization and LEC apoptosis was determined by flow cytometry after exposing the cells to anti-Annexin-V antibody and propidium iodide (as described for FIG. 2A).
Expression of p53 and PAI-1 shown in Example I were correlated with LEC apoptosis induced by bleo (FIG. 6). […] Beas2B cells were treated for 28 h with PBS or 40 μg/ml of bleo (Bleo) with uPA (20 nM), and/or anti-β1-integrin antibody (1 μg/ml, B1), control mouse IgG (mIgG) PP-1 peptide (10 nM) or CP-1 control peptide (10 nM) as described above at 37° C. Cells were trypsinized and LEC apoptosis was determined by flow cytometry after exposing the cells to anti-Annexin-V antibody and propidium iodide (as described for FIG. 2A).

## Bleomycin
[1]
  uPA expression: suppressing
[2]
  p53 expression: induced
[3]
  PAI-1 expression: induced
[4]
  uPAR expression: suppressing

## DGIWKASFTTFTVTKYWFYR [PP-1, residues 82-101 of human Cav-1, the caveolin-1 scaffolding domain]
[5]
  bleo-induced DNA fragmentation: protect against bleo-induced LEC apoptosis and DNA fragmentation
[6]
  protection of LECs from bleo-induced apoptosis: protected LECs from bleo-induced apoptosis; also recorded: more potent in protecting LECs than was uPA or anti-β1-integrin antibody
